In brackets after ≈: the same amount, converted by molar mass. Where two headings read alike, the source gives them in different places.
How the values were obtained:
[1] = test system: anaerobic bacteria; assay: NCCLS agar dilution MIC, anaerobic bacteria (summary); format: cell-based; conditions: anaerobes, Wilkins Chalgren Agar, 48 hour anaerobic incubation; for MIC Range: in µg/mL
[2] = test system: Fusobacterium necrogenes; assay: Agar dilution MIC; format: cell-based; conditions: Fusobacterium necrogenes isolate
[3] = test system: Prevotella bivia; assay: Agar dilution MIC; format: cell-based; conditions: Prevotella bivia isolate
[4] = test system: Porphyromonas asaccharolytica; assay: Agar dilution MIC; format: cell-based; conditions: Porphyromonas asaccharolytica isolate
[5] = test system: Porphyromonas gingivalis; assay: Agar dilution MIC; format: cell-based; conditions: Porphyromonas gingivalis isolate
[6] = test system: Mycobacterium tuberculosis; assay: Agar dilution method for M. tuberculosis (Middlebrook 7H10); format: cell-based; conditions: 504 h; for MIC90 / MIC: 21 days at 37° C.; for MIC: read-out: G.M. (MIC)
[7] = test system: Mycobacterium avium intracellulare; assay: Agar dilution method (Middlebrook 7H10); format: cell-based; conditions: 504 h, 21 days at 37° C.; for MIC: read-out: G.M. (MIC)
[8] = test system: MRSE 879; assay: Broth MIC; format: cell-based; conditions: for MIC: Staphylococcus epidermidis, read-out: broth MIC
Text: (§1) The change in MIC in broth and on sintered glass adherent bacteria is presented in Graph E. [drawing]

[9] = test system: MRSE 879 adherent bacteria; assay: Sintered glass adherent bacteria model; format: cell-based; conditions: MRSE 879, sintered glass adherent
Text: (§2) Inhibition of slime production • 2. Activity against glass-adherent bacteria.
as §1

[10] = in vivo; cited from earlier work
[11] = test system: MRSA 1029/99 and MRSE 879/247; assay: Inhibition of biofilm (slime) production, safranin staining; format: cell-based; conditions: trypticase soy broth with 2% glucose, overnight 37° C., Graphs A to D
Method: as §2
To study the effect of polymorphic ‘Form A’ on the inhibition of biofilm production, the following study was carried out as set forth in Blake et al. J. Clinical Microbiol. 2001; 39:544-550; and Polonio et al. Chemother. 2001; 45:3262-3266. […] Bacterial suspensions (in triplicate) were exposed a doubling dilution of antibiotics and incubated overnight at 37° C. with constant shaking (100 rpm). The next day, after aspirating the medium, the biofilm was stained with safranin (0.1%) for 1 hour at room temperature, washed with distilled water, tapped dry and stain-extracted into 200 μl of 0.2M NaoH and the OD measured at 544 nm.

[12] = test system: Clostridium perfringens; format: cell-based

| Molecule | Geometric Mean (MIC) [1] [µg/mL] | MIC50 [1] [µg/mL] | MIC90 [1] [µg/mL] | MIC Range [1] | MIC [2] [µg/mL] | MIC [3] [µg/mL] | MIC [4] [µg/mL] | MIC [5] [µg/mL] | MIC50 [6] [µg/mL] | MIC90 [6] [µg/mL] | MIC [6] [µg/mL] | MIC50 [7] [µg/mL] | MIC90 [7] [µg/mL] | MIC [7] [µg/mL] | other results |
| --- | --- | --- | --- | --- | --- | --- | --- | --- | --- | --- | --- | --- | --- | --- | --- |
| CC1(C)S[C@@H]2[C@H](NC(=O)[C@H](N)c3ccc(O)cc3)C(=O)N2[C@H]1C(=O)O [Amox] | 1.37 | 1 (≈ 2.74 µM) | 256 (≈ 701 µM) | 0.062-256 | 0.5 (≈ 1.37 µM) |  |  |  |  |  |  |  |  |  |  |
| COc1c(N2CCNC(C)C2)c(F)cc2c(=O)c(C(=O)O)cn(C3CC3)c12 (stereo not shown) [Gatifloxacin] | 0.659 | 0.5 (≈ 1.33 µM) | 2 (≈ 5.33 µM) | 0.06-32 | 0.5 (≈ 1.33 µM) | 2 (≈ 5.33 µM) | 0.25 (≈ 0.666 µM) | 0.06 (≈ 0.16 µM) |  |  |  |  |  |  |  |
| CC[C@H]1OC(=O)[C@H](C)[C@@H](O[C@H]2C[C@@](C)(OC)[C@@H](O)[C@H](C)O2)[C@H](C)[C@@H](O[C@@H]2O[C@H](C)C[C@H](N(C)C)[C@H]2O)[C@](C)(OC)C[C@@H](C)C(=O)[C@H](C)[C@@H](O)[C@]1(C)O [Clarithromycin] |  |  |  |  |  |  |  |  | 16 (≈ 21.4 µM) | 32 (≈ 42.8 µM) | 12.7 (≈ 17 µM) | 1 (≈ 1.34 µM) | 4 (≈ 5.35 µM) | 1.55 (≈ 2.08 µM) |  |
| Teicoplanin | 2.04 | 2 | 32 | 0.03-32 | > 16 | 1 | 0.125 | ≤ 0.06 |  |  |  |  |  |  |  |
| CC(=O)NC[C@H]1CN(c2ccc(N3CCOCC3)c(F)c2)C(=O)O1 [Linezolid] | 1.13 | 1 (≈ 2.96 µM) | 4 (≈ 11.9 µM) | 0.25-4 | 0.5 (≈ 1.48 µM) | 1 (≈ 2.96 µM) | 1 (≈ 2.96 µM) | 1 (≈ 2.96 µM) | 8 (≈ 23.7 µM) | 64 (≈ 190 µM) | 8 (≈ 23.7 µM) | 16 (≈ 47.4 µM) | 64 (≈ 190 µM) | 20.6 (≈ 61 µM) | MIC ([8]; MRSE 879, broth): 2 µg/mL (≈ 5.93 µM); concentration which would kill adherent bacteria [9]: 32 µg/mL; Cmax [10]: 12000 to 16000 ng/mL |
| Cc1ncc([N+](=O)[O-])n1CCO [Metronidazole] | 0.48 | 0.5 (≈ 2.92 µM) | 2 (≈ 11.7 µM) | 0.062-32 | 0.25 (≈ 1.46 µM) | 1 (≈ 5.84 µM) |  |  |  |  |  |  |  |  |  |
| CC(=O)NC[C@H]1CN(c2ccc(N3CCN(Cc4ccc([N+](=O)[O-])o4)CC3)c(F)c2)C(=O)O1.Cl [Polymorphic ‘Form A’] | 0.037 | 0.032 | 0.25 | 0.004-1 | ≤ 0.008 | 0.125 | ≤ 0.008 | ≤ 0.008 | 4 | 64 | 5.44 | 8 | 32 | 8.52 | Inhibition of Biofilm formation [11]: occurs at a lower concentration; MIC ([8]; MRSE 879, broth): 0.5 µg/mL; concentration which would kill adherent bacteria [9]: 2 µg/mL |
| CCC[C@@H]1C[C@@H](C(=O)N[C@@H]([C@H]2O[C@H](SC)[C@H](O)[C@@H](O)[C@H]2O)[C@H](C)Cl)N(C)C1 [Clindamycin] | 0.208 | 0.125 (≈ 0.294 µM) | 8 (≈ 18.8 µM) | 0.008-64 | 0.03 (≈ 0.0706 µM) | > 32 | ≤ 0.016 | ≤ 0.016 |  |  |  |  |  |  |  |
| CO[C@H]1/C=C/O[C@@]2(C)Oc3c(C)c(O)c4c(O)c(c(/C=N/N5CCN(C)CC5)c(O)c4c3C2=O)NC(=O)/C(C)=C\C=C\[C@H](C)[C@H](O)[C@@H](C)[C@@H](O)[C@@H](C)[C@H](OC(C)=O)[C@@H]1C [Rifampicin] |  |  |  |  |  |  |  |  | 64 (≈ 77.8 µM) | 64 (≈ 77.8 µM) | 6.35 (≈ 7.72 µM) | 1 (≈ 1.22 µM) | 32 (≈ 38.9 µM) | 2 (≈ 2.43 µM) |  |
| Synercid | 1.61 | 1 | 16 | 0.062-16 | 0.25 | 2 | ≤ 0.125 | 0.25 |  |  |  |  |  |  | broth MIC ([8]; MRSE 879, broth): 0.5 µg/mL; concentration which would kill adherent bacteria [9]: 2 µg/mL |
| Amox + clav | 0.423 | 0.25 | 8 | 0.062-32 | 0.5 | ≤ 0.125 | ≤ 0.125 | ≤ 0.125 |  |  |  |  |  |  |  |
| CN[C@H](CC(C)C)C(=O)N[C@H]1C(=O)N[C@@H](CC(N)=O)C(=O)N[C@H]2C(=O)N[C@H]3C(=O)N[C@H](C(=O)N[C@H](C(=O)O)c4cc(O)cc(O)c4-c4cc3ccc4O)[C@H](O)c3ccc(c(Cl)c3)Oc3cc2cc(c3O[C@@H]2O[C@H](CO)[C@@H](O)[C@H](O)[C@H]2O[C@H]2C[C@](C)(N)[C@H](O)[C@H](C)O2)Oc2ccc(cc2Cl)[C@H]1O [Vancomycin] | 9.31 | 32 (≈ 22.1 µM) | 32 (≈ 22.1 µM) | 0.5-32 | > 16 | > 16 | 2 (≈ 1.38 µM) | 8 (≈ 5.52 µM) |  |  |  |  |  |  | MIC [12]: 0.5 µg/mL (≈ 0.345 µM); MIC ([8]; MRSE): 1 µg/mL (≈ 0.69 µM); concentration which would kill adherent bacteria [9]: 8 µg/mL |
| C[C@@H]1CN(c2c(F)c(N)c3c(=O)c(C(=O)O)cn(C4CC4)c3c2F)C[C@H](C)N1 [Sparfloxacin] |  |  |  |  |  |  |  |  | 1 (≈ 2.55 µM) | 2 (≈ 5.1 µM) | 0.53 (≈ 1.35 µM) | 4 (≈ 10.2 µM) | 8 (≈ 20.4 µM) | 3.53 (≈ 8.99 µM) |  |
| C[C@@H](O)[C@H]1C(=O)N2C(C(=O)O)=C(SCCN=CN)C[C@H]12 [Imipenem] | 0.084 | 0.064 (≈ 0.214 µM) | 1 (≈ 3.34 µM) | 0.008-4 | 0.25 (≈ 0.835 µM) | 0.03 (≈ 0.1 µM) | 0.03 (≈ 0.1 µM) | ≤ 0.016 |  |  |  |  |  |  |  |
| NNC(=O)c1ccncc1 [Isoniazid] |  |  |  |  |  |  |  |  | 8 (≈ 58.3 µM) | 64 (≈ 467 µM) | 3.17 (≈ 23.1 µM) | 32 (≈ 233 µM) | 64 (≈ 467 µM) | 18.1 (≈ 132 µM) |  |
| COc1c(N2C[C@@H]3CCCN[C@@H]3C2)c(F)cc2c(=O)c(C(=O)O)cn(C3CC3)c12 [Moxifloxacin] |  |  |  |  | 1 (≈ 2.49 µM) |  | 0.5 (≈ 1.25 µM) | 0.03 (≈ 0.0747 µM) |  |  |  |  |  |  |  |

From patent US20050209248A1, “Plymorphic forms of phenyl oxazolidinone derivatives” (priority 2002, published 2005)
